Measured values from patent publication US5196577A, “Compound marked with tritium, its preparation and its use in particular in the determination of the affinity of retinoids for their nuclear receptors and their cytosolic binding protein” (Centre International de Recherches Dermatologiques, priority 1988, dated 1993).
Entries after “also recorded” stand apart in the source; their conditions may differ. Like-named read-outs stand apart in the source and are kept apart here.

How the values were obtained:
F9 cells = assay: Production of secreted plasminogen activator by differentiating F9 cells (biological activity, CPA50); assay type: cell-based, murine; conditions: for EC50: Mus musculus, read-out: BIOLOGICAL ACTIVITY CPA50
From the text: The biological activity of the retinoids can be measured on the F9 cells by quantifying the production of the plasminogen activator secreted consecutively with the differentiation of said cells, caused by the retinoids. CPA50 is the concentration of retinoids causing an induction of 50% of the maximum of the secreted plasminogen activator. By comparing the IC50 and CPA50 values on Table 1, it can be noted that there is an excellent correlation between the affinity of the retinoids for the RARs and their biological activity (see also the straight regression line of FIG. 4). The only exception is retinoic acid itself. […] In effect, the IC50 measurement is carried out after an incubation of 3 hours, while the CPA50 measurement is carried out after a incubation of 3 days.

[1] = system: retinoic acid nuclear receptors (RARs); assay: Competition with the tritiated compound of example 1 for RARs in F9 cells (HPSEC of nucleosol); assay type: binding, murine; conditions: for IC50: competition with 2 nM tritiated compound of example 1, incubation of 3 hours, read-out: AFFINITY RARs:IC50
Procedure: (§1) Cultures of F9 cells of murin embryonic carcinoma (normally four 90 mm dishes containing in total 2-4×10^7 cells per incubation condition) were washed once with PBS (saline phosphate buffer) and incubated for 3 hours in a medium, without serum, supplemented with the marked retinoid in the absence or the presence of a cold retinoid homolog or heterolog (to verify the specificity and for comparison experiments). The cells were then detached with a trypsin EDTA mixture and numbered with a Burker hemocytometer. The nucleosol containing RARs was extracted from the purified nuclei using the method described by Daly and Redfern (1987) (that is, after treatment using DNAase and NaCl 0.6M), and analyzed using high performance exclusion chromatography (HPSEC). 50 μl of marked extract were injected on a 9×250 mm GF250 column (Dupont de Nemours). The elution was carried out in a buffer 0.3M KH2 PO4 pH 7.8 at a rate of 1 ml/min. The protein content was followed by measuring the optical density at 280 nm. 28 fractions of 0.3 ml each were collected and counted in Picofluor (Packard) scintillating agent. For each retinoid concentration, the number of bonded molecules was determined using the surface of the radioactivity peak and the calculated concentration of demi-saturation (C50). […] The dose-response curves and the competition curves were analyzed on a computer through non-linear regression using the various forms of the Clark equation.
In view of its stability and its excellent affinity for the RARs, the compound of example 1 in principle enables the determination by competition of the affinity of no matter which retinoid for the RARs.
The […] profiles are obtained after incubation of the F9 cells with 2×10^-9 M of the compound of example 1 in the absence (- ) or in the presence of 10^-9 M(.quadrature.-.quadrature.), 10^-8 M (- ), 10^-7 M (Δ-Δ), 10^-6 M (- ) of cold competitors. I=the unmarked compound of example 1. RA=retinoic acid. For each competition concentration, the peak surface is expressed as a percentage of the surface obtained with the compound of example 1 without competition.
By measuring the surface of the radioactive peak for each concentration of cold competition, it is possible to trace the competition sigmoids. Data processing of these curves enables the determination of the IC50 (50% inhibiting concentration) of each retinoid.

CRABP [2] = target: T1, CRABP (Rattus norvegicus, UniProt P62966); assay: Competition with the claimed marked compound for CRABP; assay type: binding
T1 construct: rat testicle cytosol containing CRABP; from tissue
Procedure: These competition experiments are carried out in the following manner: a fixed quantity of radioactive ligand (corresponding substantially to the demi-saturation, in our case 4 nM) is mixed with increasing quantities of cold ligand (non-radioactive). Then the binding protein is added and the quantity of radioactive ligand fixed to the balance is determined (in % of the initial fixing in the absence of cold ligand, for the quantity of CRABP under consideration).
From the competition curves, the IC50 (concentration of cold ligand reducing the attachment of the tritiated ligand by 50%) is determined. This IC50 value enables the calculation in each case of the dissociation constant from the balance (Kd) for the cold ligand.

[3] = system: retinoic acid nuclear receptors (RARs); assay: Direct fixing of tritiated ligand on RARs of F9 cells (HPSEC of nucleosol); assay type: binding, murine; conditions: 200 nM tritiated ligand; for specific fixing on RARs in presence of excess cold homolog ligand: 100-fold excess (20000 nM) cold ligand, FIG. 1; for ligand fixed to the RARs per cell: FIG. 2
Procedure: as §1
When the above-describe method is used and the F9 cells are incubated with the compound of example 1 at a concentration of 200 nM, a single radioactivity peak is observed in the nuclear extract (FIG. 1B). The molecular weight corresponding to the average fraction of the peak is approximately 45 kDa, a number close to the molecular weight of human RARs, as has been calculated from the sequence of their DNAc (Petkovich et al, 1987; Brand et al, 1988), and is compatible with the 4S sedimentation coefficient of murin receptors (Daly & Redfer, 1987). The fixing is specific since it is abolished when the cells are coincubated with an excess of 100 times of the cold compound I (FIG. 1B). There is no CRABP in the nucleosoilc extract of F9, as already underlined by Daly and Redfern (1987).
It can be noted that the radioactive peak elutes at the same position as with the compound of example 1.
The two compounds were used at a concentration of 200 nM. The quantity of ligand bonded to the RARs is expressed in molecules per cell.
To determine the concentration of the compound of example 1 giving 50% saturation of the RARs (C50), a saturation curve has been traced expressing the surface of the radioactive peak as a function of varied concentrations of the compound of example 1. The C50 is between 0.5 and 2 nM.

CRABP [4] = target: T1, CRABP; assay: Direct fixing (saturation) of tritiated ligand on CRABP in rat testicle cytosol; assay type: binding; conditions: for non-specific fixing as part of total fixing on CRABP: 1 μM cold homolog ligand; for concentration of CRABP in rat testicle cytosol found with the marked retinoid: saturating concentration of marked retinoid
Procedure: The difference (- ) represents the specific bond.
The total fixing (non-specific+specific (1-1) is obtained by incubation of increasing concentrations (up to a maximum of 125 nM) of the claimed compound with a constant quantity (0.3 ml) of a rat testicle homogenate (CRABP-rich organ). The non-specific fixing of the tritiated compound is determined in parallel, by measuring the fixing with increasing concentrations of the radioactive ligand in the presence of a large excess (1 μM) of cold homolog ligand (.quadrature.-.quadrature.). An incubation time of two hours is necessary for the establishment of balanced conditions.
Once the balance is achieved, the tritiated CRABP-ligand complex is separated from the non-bonded ligand by filtration on a Sephadex G25 exclusion gel column (BIO-Rad econo columns, 0.5× 20 cm): the complex is eluted (elution peak at 2.5 ml), while the non-bonded ligand is retained in totality on the column. […] The elution is done directly in scintillation tubes and the radioactivity is measured by counting.
The difference between the total fixing curve (- )and the non-specific fixing curve (.quadrature.-.quadrature.) gives the specific fixing curve ( - ). Analysis of this curve provides the dissociation constant with the balance (Kd), which is the concentration of product necessary to saturate 50% of the CRABP. This constant is a measurement of the affinity of the ligand for its binding protein, with the Kd being inversely proportional to the affinity (the lower the Kd, the greater the affinity).
The concentration of CRABP in the rat testicle cytosol used for the experiment can be determined in binding experiments where the marked retinoids are used at a saturating concentration.

[5] = Stability of ligand (general statements); assay type: physicochemical; conditions: statement in words, no data
[6] = by radiolysis, oxidation and photolysis; background statement; cited from earlier work
[7] = 72 h, concentration causing induction of 50% of the maximum of secreted plasminogen activator, F9 cells, incubation of 3 days
[8] = Table 1, Kd calculated from competition IC50, radioligand about 4 nM, read-out: AFFINITY CRABP:Kd

T1 sequence (P62966 whole entry): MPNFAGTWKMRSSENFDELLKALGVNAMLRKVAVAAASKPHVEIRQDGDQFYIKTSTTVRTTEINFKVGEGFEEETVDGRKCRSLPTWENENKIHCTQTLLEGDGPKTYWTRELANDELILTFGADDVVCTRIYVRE

| SMILES | EC50 (F9 cells; F9, 72 h) [µM] | IC50 ([1]; F9 cells) [µM] | Kd (CRABP [2]) [µM] | EC50 (F9 cells; [7]) [µM] | Kd (CRABP [2]; [8]) [µM] | also measured |
| --- | --- | --- | --- | --- | --- | --- |
| CC1(C)CCC(C)(C)c2cc(-c3cc4ccc(C(=O)O)cc4o3)ccc21 [Compound VI, 2(5,6,7,8-tetrahydro-5,5,8,8-tetramethyl-2-naphthyl)-6 benzo(b)furan carboxylic acid] | 0.67 | 0.77 | 0.2 | – | – | – |
| CC1(C)CCC(C)(C)c2cc3cc(-c4ccc(C(=O)O)cc4)ccc3cc21 [Compound I, 4-(5,6,7,8-tetrahydro-5,5,8,8-tetramethyl-2-anthracenyl) benzoic acid] | – | 0.0008 | – | 0.001 | 0.004 | affinity for the RARs relative to retinoic acid ([1]; from IC50 of Table 1): six times; specific fixing on RARs in presence of excess cold homolog ligand [3]: abolished |
| CC1(C)CCC(C)(C)c2cc(-c3ccc4cc(C(=O)O)ccc4c3)ccc21 [Compound V, 6(5,6,7,8-tetrahydro-5,5,8,8-tetramethyl-2-naphthyl)-2-naphthoic acid] | – | 0.012 | – | 0.066 | 0.02 | – |
| CC1(C)CCC(C)(C)c2cc(C(=O)Nc3ccc(C(=O)O)cc3)ccc21 [Compound VII, 4(5,6,7,8-tetrahydro-5,5,8,8-tetramethyl-2-naphthamido) benzoic acid] | – | 0.076 | – | 0.085 | 0.2 | – |
| CC1(C)CCC(C)(C)c2cc(-c3cc4ccc(C(=O)O)cc4s3)ccc21 [Compound IV, 2(5,6,7,8-tetrahydro-5,5,8,8-tetramethyl-2-naphthyl)-6-benzo(b)thiophene carboxylic acid] | 0.053 | 0.077 | 0.002 | – | – | – |
| CC1=C(/C=C/C(C)=C/C=C/C(C)=C/C(=O)O)C(C)(C)CCC1 [Retinoic acid] | 0.35 | 0.005 | – | – | – | specific fixing on RARs in presence of excess cold homolog ligand [3]: the peak is not observed; ligand fixed to the RARs per cell [3]: approximately 4,000 molecules per cell; non-specific fixing as part of total fixing on CRABP (CRABP [4]; rat testicle): approximately 25%; concentration of CRABP in rat testicle cytosol found with the marked retinoid (CRABP [4]): 10-12 pmol/mg protein; stability of the ligand [5]: high instability; degradation of retinoic acid [6]: rapidly degraded |
| Cc1c(C(=O)O)cc(S)c2cc(-c3ccc4c(c3)C(C)(C)CCC4(C)C)ccc12 [Compound VIII, 1methyl-4-thiol-6-(5,6,7,8-tetrahydro-5,5,8,8-tetramethyl-2-naphthyl)-2-nphthoic acid] | > 10 | > 10 | 0.2 | – | – | biological activity (in words) (F9 cells; F9 cells, FIG. 4): biologically inactive; also recorded: below the threshold of detection; affinity for the RARs (in words) ([1]; F9 cells, FIG. 4): below the threshold of detection |
| CC1(C)CCC(C)(C)c2cc3cc(-c4ccc(C(=O)O)cc4)ccc3cc21 [Example 1, 4-(5,6,7,8-tetrahydro-5,5,8,8-tetramethyl-2-anthracenyl) benzoic acid marked with tritium] | – | – | – | – | – | ligand fixed to the RARs per cell [3]: approximately 4,000 molecules per cell; character of non-specific fixing on CRABP (CRABP [4]; in the range of concentrations used, rat testicle): linear and non-saturable; character of specific fixing on CRABP (CRABP [4]; rat testicle): saturable and reversible; non-specific fixing as part of total fixing on CRABP (CRABP [4]; rat testicle): less than 10%; concentration of CRABP in rat testicle cytosol found with the marked retinoid (CRABP [4]): 10-12 pmol/mg protein; stability of the ligand [5]: very stable |
| CC1=C(/C=C/C(C)=C/C=C/C(C)=C/CO)C(C)(C)CCC1 [Retinol] | – | 1.4 | – | 2.5 | 0.6 | – |
